Data on nine molecules can be found in ChEMBL document CHEMBL5579819, “Dual-target inhibitors of colchicine binding site for cancer treatment” (Eur J Med Chem, 2024).

The nature of data set [1]: Selectivity index, ratio of CC50 for cytotoxicity against African green monkey Vero cells to IC50 for cytotoxicity against human HepG2 cells. To be noted: Vero cells (CC50) and HepG2 cells (IC50). The class given is toxicity, cell-based.
Data set [2] relates to MCF7. The data set is described as follows: Cytotoxicity against human MCF7 cells assessed as cell growth inhibition incubated for 24 hrs by MTT assay. The class given is functional, cell-based. To be noted: MCF7, 24 h. (Formazan colour is commonly taken as a measure of viable cells.)
Data set [3] concerns HepG2. The data set is described as follows: Cytotoxicity against human HepG2 cells assessed as reduction in cell growth incubated for 24 hrs by MTT assay. The class given is functional, cell-based. The note with it: HepG2, 24 h.
The target in data set [4] is Triosephosphate isomerase (Homo sapiens, UniProt P60174). The data set is described as follows: Inhibition of TPI (unknown origin).
Sequence of Triosephosphate isomerase (P60174 whole entry): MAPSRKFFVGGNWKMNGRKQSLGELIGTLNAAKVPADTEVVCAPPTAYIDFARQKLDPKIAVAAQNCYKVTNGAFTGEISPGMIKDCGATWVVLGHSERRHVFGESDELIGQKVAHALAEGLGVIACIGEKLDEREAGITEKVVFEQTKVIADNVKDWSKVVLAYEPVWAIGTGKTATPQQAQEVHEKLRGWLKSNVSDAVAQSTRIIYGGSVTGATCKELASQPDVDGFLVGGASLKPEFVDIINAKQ
Data set [5] relates to A549. Nature of the data set: Cytotoxicity against human A549 cells assessed as reduction in cell growth incubated for 24 hrs by MTT assay. The class given is functional, cell-based. To be noted: A549, 24 h.
For data set [6], the system named is MCF7. Nature of the data set: Cytotoxicity against human MCF7 cells assessed as reduction in cell growth incubated for 72 hrs by MTT assay. The class given is functional, cell-based. The note with it: MCF7, 72 h.
For data set [7], the system named is SiHa. Nature of the data set: Cytotoxicity against human SiHa cells assessed as reduction in cell viability measured for 48 hrs by MTT assay. Type of data set: functional, cell-based.
In data set [8] the test system is HeLa. The data set is described as follows: Cytotoxicity against human HeLa cells assessed as reduction in cell viability measured for 48 hrs by MTT assay. The class given is functional, cell-based.
Data set [9] is described as follows: Cmax in BALB/c mouse at 50 mg/kg, po measured for 24 hrs by LC-MS/MS analysis. Type of data set: ADME, organism-based. To be noted: in vivo.
Data set [10] is described as follows: AUC (0 to t) in BALB/c mouse at 50 mg/kg, po measured for 24 hrs by LC-MS/MS analysis. The note with it: in vivo. The class given is ADME, organism-based.
A short description of data set [11]: Metabolic stability in BALB/c mouse liver microsome assessed as half life incubated for 1 hrs by LC-MS/MS analysis. Type of data set: ADME. To be noted: liver microsomes. (Microsomes from liver hold many membrane-bound enzymes, among them those of drug oxidation.)
Data set [12] deals with HepG2. The data set is described as follows: Cytotoxicity against human HepG2 cells assessed as reduction in cell viability incubated for 24 hrs by MTT assay. The class given is functional, cell-based. The note with it: HepG2, 24 h.
Data set [13] deals with HCT-116. The data set is described as follows: Cytotoxicity against human HCT-116 cells assessed as reduction in cell viability incubated fro 24 hrs by MTT assay. Type of data set: functional, cell-based. To be noted: HCT-116, 24 h.
The test system of data set [14] is MCF7. Nature of the data set: Cytotoxicity against human MCF7 cells assessed as reduction in cell viability incubated for 24 hrs by MTT assay. The class given is functional, cell-based. The note with it: MCF7, 24 h.
For data set [15], the system named is COLO 205. The data set is described as follows: Cytotoxicity against human COLO 205 cells assessed as reduction in cell growth incubated for 24 hrs by SRB assay. The note with it: COLO 205, 24 h. The class given is functional, cell-based. (In general: In SRB staining, fixed cells bind dye roughly in proportion to their protein.)
The target in data set [16] is Tubulin. Nature of the data set: Inhibition of tubulin polymerization (unknown origin) by fluorescence based assay. Type of data set: protein-complex assay, Homo sapiens.
The test system of data set [17] is MCF7. The data set is described as follows: Cytotoxicity against human MCF7 cells assessed as reduction in cell growth incubated for 24 hrs by MTT assay. To be noted: MCF7, 24 h.
Data set [18] concerns the target Vascular endothelial growth factor receptor 2 (Homo sapiens, UniProt P35968). The data set is described as follows: Inhibition of VEGFR2 (unknown origin).
In data set [19] the test system is MCF7. The data set is described as follows: Cytotoxicity against human MCF7 cells assessed as reduction in cell viability by MTT assay.
The target in data set [20] is Platelet-derived growth factor receptor beta (Homo sapiens, UniProt P09619). The data set is described as follows: Inhibition of human recombinant PDGFRbeta incubated for 40 mins by Kinase-Glo luminescent kinase assay.
Sequence of Platelet-derived growth factor receptor beta (P09619 whole entry): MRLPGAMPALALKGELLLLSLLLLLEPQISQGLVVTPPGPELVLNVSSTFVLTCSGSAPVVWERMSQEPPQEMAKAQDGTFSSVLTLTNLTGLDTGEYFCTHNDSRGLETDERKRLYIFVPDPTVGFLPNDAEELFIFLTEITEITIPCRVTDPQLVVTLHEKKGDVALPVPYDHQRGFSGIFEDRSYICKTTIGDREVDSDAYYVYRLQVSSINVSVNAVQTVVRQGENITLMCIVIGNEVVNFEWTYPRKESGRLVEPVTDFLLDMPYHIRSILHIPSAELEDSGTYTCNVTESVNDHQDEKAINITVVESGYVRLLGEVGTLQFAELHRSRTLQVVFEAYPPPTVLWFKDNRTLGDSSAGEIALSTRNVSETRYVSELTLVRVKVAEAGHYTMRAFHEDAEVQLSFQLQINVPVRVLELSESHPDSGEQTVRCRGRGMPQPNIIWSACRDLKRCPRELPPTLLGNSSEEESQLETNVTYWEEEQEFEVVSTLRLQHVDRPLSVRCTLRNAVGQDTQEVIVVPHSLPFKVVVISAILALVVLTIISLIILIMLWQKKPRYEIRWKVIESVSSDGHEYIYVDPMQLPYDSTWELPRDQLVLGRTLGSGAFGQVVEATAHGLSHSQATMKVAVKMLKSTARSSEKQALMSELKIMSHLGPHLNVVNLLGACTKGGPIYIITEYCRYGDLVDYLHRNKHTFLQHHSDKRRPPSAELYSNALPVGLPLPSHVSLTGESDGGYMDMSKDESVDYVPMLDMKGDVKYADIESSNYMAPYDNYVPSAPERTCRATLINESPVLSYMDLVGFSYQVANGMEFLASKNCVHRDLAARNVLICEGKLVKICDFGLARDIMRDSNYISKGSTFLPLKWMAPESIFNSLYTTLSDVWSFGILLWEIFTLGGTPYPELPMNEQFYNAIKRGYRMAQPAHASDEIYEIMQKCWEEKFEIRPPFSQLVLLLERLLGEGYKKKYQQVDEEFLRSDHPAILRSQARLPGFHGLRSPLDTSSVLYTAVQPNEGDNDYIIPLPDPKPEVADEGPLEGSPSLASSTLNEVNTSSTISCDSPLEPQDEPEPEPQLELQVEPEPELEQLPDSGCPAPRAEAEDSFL
For data set [21], the system named is U-937. The data set is described as follows: Cytotoxicity against human U-937 cells. The class given is functional, cell-based.
Data set [22] relates to A549. Nature of the data set: Cytotoxicity against human A549 cells. The class given is functional, cell-based.
Data set [23] deals with Histone deacetylase 2 (Homo sapiens, UniProt Q92769). The data set is described as follows: Inhibition of HDAC2 (unknown origin).
Sequence of Histone deacetylase 2 (Q92769 whole entry): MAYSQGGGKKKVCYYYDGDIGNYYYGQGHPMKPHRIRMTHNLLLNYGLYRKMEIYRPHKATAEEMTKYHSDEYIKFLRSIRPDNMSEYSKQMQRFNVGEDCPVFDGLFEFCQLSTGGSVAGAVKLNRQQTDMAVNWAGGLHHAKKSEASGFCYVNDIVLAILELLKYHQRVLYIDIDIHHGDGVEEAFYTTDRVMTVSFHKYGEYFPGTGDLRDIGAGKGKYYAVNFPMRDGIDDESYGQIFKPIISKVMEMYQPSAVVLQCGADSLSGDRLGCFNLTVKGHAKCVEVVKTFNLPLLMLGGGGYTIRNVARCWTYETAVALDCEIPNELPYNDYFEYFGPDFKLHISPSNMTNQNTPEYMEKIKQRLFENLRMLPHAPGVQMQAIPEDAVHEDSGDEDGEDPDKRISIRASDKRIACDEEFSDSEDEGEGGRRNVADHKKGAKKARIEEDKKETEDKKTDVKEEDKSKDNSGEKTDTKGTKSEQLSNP
Data set [24] deals with Ishikawa. Nature of the data set: Antiproliferative activity against human Ishikawa cells assessed as reduction in cell growth incuabted for 48 hrs by MTT assay. Type of data set: functional, cell-based.

Sequence of Vascular endothelial growth factor receptor 2 (P35968 whole entry): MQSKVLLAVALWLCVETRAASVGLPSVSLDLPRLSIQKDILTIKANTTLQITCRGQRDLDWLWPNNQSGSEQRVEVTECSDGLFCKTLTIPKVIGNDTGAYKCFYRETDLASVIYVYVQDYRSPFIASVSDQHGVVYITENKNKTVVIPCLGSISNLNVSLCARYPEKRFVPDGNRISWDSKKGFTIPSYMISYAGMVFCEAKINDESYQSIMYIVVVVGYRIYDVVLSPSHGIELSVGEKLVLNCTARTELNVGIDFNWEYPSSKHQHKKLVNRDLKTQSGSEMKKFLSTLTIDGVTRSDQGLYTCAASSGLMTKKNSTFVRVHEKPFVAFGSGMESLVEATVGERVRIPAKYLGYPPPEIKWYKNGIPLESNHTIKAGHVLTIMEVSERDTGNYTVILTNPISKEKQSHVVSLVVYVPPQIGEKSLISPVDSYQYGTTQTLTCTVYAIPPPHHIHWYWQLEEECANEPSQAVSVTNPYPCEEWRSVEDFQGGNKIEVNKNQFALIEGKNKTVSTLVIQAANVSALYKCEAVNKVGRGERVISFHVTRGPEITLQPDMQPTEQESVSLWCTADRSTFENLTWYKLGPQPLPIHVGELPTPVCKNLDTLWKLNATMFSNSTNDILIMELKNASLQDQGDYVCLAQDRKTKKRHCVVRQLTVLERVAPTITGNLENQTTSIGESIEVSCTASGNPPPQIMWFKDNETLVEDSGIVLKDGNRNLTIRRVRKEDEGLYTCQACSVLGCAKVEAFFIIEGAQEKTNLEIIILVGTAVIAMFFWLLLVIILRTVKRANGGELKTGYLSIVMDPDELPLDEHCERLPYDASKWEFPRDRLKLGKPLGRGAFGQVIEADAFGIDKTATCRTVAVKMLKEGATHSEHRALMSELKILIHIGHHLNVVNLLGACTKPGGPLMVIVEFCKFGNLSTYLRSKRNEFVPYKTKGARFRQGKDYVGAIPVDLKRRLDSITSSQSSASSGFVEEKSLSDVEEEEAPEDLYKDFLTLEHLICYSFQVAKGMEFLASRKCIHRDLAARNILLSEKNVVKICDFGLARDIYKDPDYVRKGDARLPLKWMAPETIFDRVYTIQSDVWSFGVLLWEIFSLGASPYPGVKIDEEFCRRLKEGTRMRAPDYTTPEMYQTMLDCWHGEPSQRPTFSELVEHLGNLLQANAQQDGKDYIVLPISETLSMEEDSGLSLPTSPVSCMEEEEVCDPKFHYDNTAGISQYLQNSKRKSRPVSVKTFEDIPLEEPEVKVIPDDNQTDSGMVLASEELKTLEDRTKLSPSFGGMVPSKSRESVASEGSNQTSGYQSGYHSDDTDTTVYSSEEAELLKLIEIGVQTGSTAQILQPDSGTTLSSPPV

A word on the IC50: it is the concentration that gives 50% inhibition. With `CN(C)c1ccc(/C=N/c2c(N)n(C)c(=O)[nH]c2=O)cc1`, the selectivity ratio in [1] worked out at 3.74. The IC50 in data set [2] is 3.17 µM; in data set [3], 1.07 µM; in [4], 1.9 µM; in data set [5], 1.53 µM.
In the case of `Nc1ccccc1NC(=O)c1ccc(CN2CCC/C(=C\c3cccc(Cl)c3)C2=O)cc1`, the IC50 in data set [6] came out at 2.1 µM.
With `COc1cc2oc(C(=O)c3cc(OC)c(OC)c(OC)c3)cc2cc1/C=C/C(=O)O`, the values for the half-maximal inhibitory concentration (IC50) in data set [7] and in data set [8] were 1.1 µM and 1.06 µM, respectively.
By Cmax is commonly meant the peak of the concentration-time curve. As a reminder, the AUC(0-t) is exposure summed from dosing to a finite time, without extrapolation to infinity. One may read the half-life as the time in which the quantity being followed falls by half. On to `CCOC(=O)Nc1nc2ccc(-c3cc(Cc4n[nH]c(=O)c5ccccc45)ccc3F)cc2[nH]1`, for which, in data set [9], the highest level (Cmax) was 12200 ng/mL. Moreover, the AUC(0-t) at 24 h in data set [10] was determined as 87600 ng·h/mL. This molecule also gave an IC50 in data set [4] of 0.99 µM. Besides, in [11], the half-life was 4.29 h.
Take `CCOCCSc1nc(-c2ccccc2Cl)nn1CCOCC`: the IC50 worked out at 1.3 µM in data set [12], 3.36 µM in data set [13] and 5.16 µM in [14].
Consider `COc1cc(OC)c(/C=C2/C(=O)Nc3cc(Cl)ccc32)c(OC)c1`, for which the results for the IC50 in [15] and in data set [16] were 0.2 µM and 1.66 µM, respectively.
In the case of `O=C1Nc2ccccc2/C1=C/c1ccc(OCC(=O)c2ccc(Br)cc2)cc1`, the IC50 in data set [17] amounted to 14.8 µM; in data set [18] it was 5.75 µM; in [4] it was 7.99 µM; in data set [19], 14.8 µM; in data set [20], 3.18 µM.
Turning to `COc1cc2c(cc1OCc1ccc(C(=O)Nc3ccccc3N)cc1)CC[C@@H]1[C@@H]2CC[C@]2(C)[C@@H](O)CC[C@@H]12`, the IC50 in [21] came out at 0.371 µM; in [22], 1.78 µM; in data set [23] it was 0.06 µM.
With `O=c1cc(-c2ccc(F)cc2)oc2cc(-c3ccoc3)ccc12`, the half-maximal inhibitory concentration (IC50) was 1 µM in data set [24] and 1.4 µM in data set [4].
